Results on 10 compounds are retold here after patent US20250333406A1, “SULFONYL CYCLIC DERIVATIVES, AND COMPOSITIONS AND METHODS THEREOF” (Lysoway Therapeutics, Inc., priority 2023, published 2025).

SMILES strings stand for the structures. Where only a bound is given, the exact number is not on record here.

The test system of one test is TFEB. Description: TFEB Nuclear Translocation Assay. The test is classed as cell-based. Particulars: read-out: EC50 of TFEB activation.
For a further test, the system named is TRPML1. Particulars: cited from earlier work.
In another test the target is T1, TRPML2 (Homo sapiens, UniProt Q8IZK6).
T1 sequence (Q8IZK6 1-566): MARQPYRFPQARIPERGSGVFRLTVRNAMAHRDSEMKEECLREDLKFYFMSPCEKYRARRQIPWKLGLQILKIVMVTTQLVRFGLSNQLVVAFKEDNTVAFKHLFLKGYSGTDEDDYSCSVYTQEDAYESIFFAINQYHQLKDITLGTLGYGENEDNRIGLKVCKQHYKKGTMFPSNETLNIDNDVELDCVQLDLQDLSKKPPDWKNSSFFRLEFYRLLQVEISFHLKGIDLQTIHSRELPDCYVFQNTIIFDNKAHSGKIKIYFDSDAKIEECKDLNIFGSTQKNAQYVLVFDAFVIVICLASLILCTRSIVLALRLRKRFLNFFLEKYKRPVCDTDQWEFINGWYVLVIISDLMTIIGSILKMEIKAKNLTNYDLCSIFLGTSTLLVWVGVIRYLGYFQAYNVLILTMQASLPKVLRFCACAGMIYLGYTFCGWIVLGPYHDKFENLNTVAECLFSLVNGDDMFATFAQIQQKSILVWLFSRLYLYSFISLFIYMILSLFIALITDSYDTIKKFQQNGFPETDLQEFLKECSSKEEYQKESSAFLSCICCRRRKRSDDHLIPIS
Conditions: cited from earlier work.

Another test has as its target T2, ML1-4A (Homo sapiens, UniProt Q9GZU1, L15A/L16A).
T2 construct: host or cells: HEK293 (stably or transiently transfected)
Particulars: HEK293 cells stably or transiently expressing ML1-4A; cited from earlier work.

Test [1] concerns the target T3, TRPML-like current (IML-L) (Homo sapiens, UniProt Q9GZU1).
T3 construct: endogenous in cells; host or cells: human fibroblasts (WT ML1+/+; ML4 ML1-/- as negative control)
Particulars: wild-type (WT; ML1+/+) human fibroblasts; cited from earlier work.

For test [2], the system named is TRPML-like current (IML-L). Particulars: ML4 (ML1−/−) human fibroblasts; cited from earlier work.
The test system of a further test is TRPMLs. Particulars: cited from earlier work.
In the next test the target is T4, TRPML3 (Homo sapiens, UniProt Q8TDD5).
T4 sequence (Q8TDD5 1-553): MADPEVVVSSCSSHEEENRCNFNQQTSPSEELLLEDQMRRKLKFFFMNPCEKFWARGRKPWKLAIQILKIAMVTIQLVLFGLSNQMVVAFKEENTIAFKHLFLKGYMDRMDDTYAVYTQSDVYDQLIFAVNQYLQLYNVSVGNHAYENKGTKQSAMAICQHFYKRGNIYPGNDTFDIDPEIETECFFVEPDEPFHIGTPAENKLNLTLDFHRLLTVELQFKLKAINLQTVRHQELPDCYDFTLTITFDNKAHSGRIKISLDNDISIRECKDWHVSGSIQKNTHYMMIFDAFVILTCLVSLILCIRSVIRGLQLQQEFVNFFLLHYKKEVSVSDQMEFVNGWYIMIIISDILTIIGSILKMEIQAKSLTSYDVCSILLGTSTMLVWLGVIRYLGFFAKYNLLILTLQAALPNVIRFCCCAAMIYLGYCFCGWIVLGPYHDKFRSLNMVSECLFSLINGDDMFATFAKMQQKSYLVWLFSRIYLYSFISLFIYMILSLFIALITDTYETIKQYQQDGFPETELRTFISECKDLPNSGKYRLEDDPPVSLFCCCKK
Particulars: cited from earlier work.

T3 sequence (Q9GZU1 whole entry): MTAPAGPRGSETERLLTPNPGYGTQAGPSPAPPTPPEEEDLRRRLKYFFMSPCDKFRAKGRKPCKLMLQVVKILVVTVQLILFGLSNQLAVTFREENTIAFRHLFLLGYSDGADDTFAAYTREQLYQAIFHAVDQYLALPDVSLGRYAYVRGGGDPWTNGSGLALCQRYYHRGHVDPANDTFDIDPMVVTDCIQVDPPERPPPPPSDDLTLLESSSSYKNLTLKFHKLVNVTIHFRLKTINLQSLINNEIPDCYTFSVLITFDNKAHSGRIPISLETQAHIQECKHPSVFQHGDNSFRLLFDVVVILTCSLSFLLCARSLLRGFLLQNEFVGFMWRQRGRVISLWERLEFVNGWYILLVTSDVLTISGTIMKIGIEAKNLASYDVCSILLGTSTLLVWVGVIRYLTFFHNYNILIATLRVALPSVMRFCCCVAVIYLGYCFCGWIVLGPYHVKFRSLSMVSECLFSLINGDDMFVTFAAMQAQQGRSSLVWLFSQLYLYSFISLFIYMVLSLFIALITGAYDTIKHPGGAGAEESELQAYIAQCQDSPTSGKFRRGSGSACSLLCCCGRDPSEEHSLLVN
T2 sequence (Q9GZU1 with tags, fused parts or gaps L15A/L16A limits assumed): as the sequence (Q9GZU1 whole entry) above, with L15A, L16A, L577A, L578A counted along it

A word on the EC50: it is the midpoint of the concentration-response curve. For the compound `CC(C)S(=O)(=O)n1ccc(S(=O)(=O)n2nc(N3CCC(F)CC34CC4)c3c(Cl)cc(F)cc32)c1` (centres unmarked) [Compound 192, 4-chloro-6-fluoro-3-(7-fluoro-4-azaspiro [2.5]octan-4-yl)-1-(1-isopropylsulfonylpyrrol-3-yl) sulfonyl-indazole], the EC50 in the test with TFEB was not above 1 µM.

For the compound `CC(C)S(=O)(=O)c1nc(S(=O)(=O)n2nc(N3CCN(c4ncc(Cl)cc4F)CC34CC4)c3c(F)ccc(F)c32)cs1` [Compound 193, 4-[3-[7-(5-chloro-3-fluoro-2-pyridyl)-4,7-diazaspiro [2.5]octan-4-yl]-4,7-difluoro-indazol-1-yl]sulfonyl-2-isopropylsulfonyl-thiazole], the EC50 with TFEB lay in the range of 1 to 10 µM. For `CC(C)S(=O)(=O)c1nc(S(=O)(=O)n2nc(N3CCN(c4ncc(F)cc4F)CC34CC4)c3c(F)ccc(F)c32)cs1` [Compound 194, 4-[3-[7-(3,5-difluoro-2-pyridyl)-4,7-diazaspiro [2.5]octan-4-yl]-4,7-difluoro-indazol-1-yl]sulfonyl-2-isopropylsulfonyl-thiazole], in the test on TFEB, the EC50 fell in the range of 1 to 10 µM. On to `CC(C)S(=O)(=O)c1nc(S(=O)(=O)n2nc(N3CCN(c4ncc(F)cn4)CC34CC4)c3c(F)ccc(F)c32)cs1` [Compound 195, 4-((4,7-difluoro-3-(7-(5-fluoropyrimidin-2-yl)-4,7-diazaspiro 12.51 octan-4-yl)-1H-indazol-1-yl)sulfonyl)-2-(isopropylsulfonyl) thiazole], for which the concentration giving a half-maximal response (EC50) in the test on TFEB fell in the range of 1 to 10 µM. As for `CC(C)S(=O)(=O)c1nc(S(=O)(=O)n2nc(N3CCN(c4ncc(Cl)cc4F)CC34CC4)c3c(Cl)cccc32)cs1` [Compound 196, 4-((4-chloro-3-(7-(5-chloro-3-fluoropyridin-2-yl)-4,7-diazaspiro [2.5]octan-4-yl)-1H-indazol-1-yl)sulfonyl)-2-(isopropylsulfonyl) thiazole], the concentration giving a half-maximal response (EC50) in the test on TFEB is not above 1 µM.

On to `CC(C)S(=O)(=O)c1nc(S(=O)(=O)n2nc(N3CCN(c4ncc(F)cc4F)CC34CC4)c3c(Cl)cc(F)cc32)cs1` [Compound 197, 4-[4-chloro-3-[7-(3,5-difluoro-2-pyridyl)-4,7-diazaspiro [2.5]octan-4-yl]-6-fluoro-indazol-1-yl]sulfonyl-2-isopropylsulfonyl-thiazole], for which the EC50 in the test on TFEB lay in the range of 1 to 10 µM. As for `CC(C)S(=O)(=O)c1nc(S(=O)(=O)n2nc(N3CCN(c4ncc(F)cc4F)CC34CC4)c3c(F)cc(F)cc32)cs1` [Compound 198, 4-((3-(7-(3,5-difluoropyridin-2-yl)-4,7-diazaspiro [2.5]octan-4-yl)-4,6-difluoro-1H-indazol-1-yl)sulfonyl)-2-(isopropylsulfonyl) thiazole], the half-maximal effective concentration (EC50) in the test on TFEB lay in the range of 1 to 10 µM. Take `CC(C)S(=O)(=O)n1ccc(S(=O)(=O)n2nc(N3CCN(c4ncc(F)cc4F)CC34CC4)c3c(Cl)cc(F)cc32)n1` [Compound 199, 4-chloro-3-[7-(3,5-difluoro-2-pyridyl)-4,7-diazaspiro [2.5]octan-4-yl]-6-fluoro-1-(1-isopropylsulfonylpyrazol-3-yl) sulfonyl-indazole]: the EC50 in the test with TFEB is not above 1 µM.

As for `CC(C)S(=O)(=O)n1cnc(S(=O)(=O)n2nc(N3CCN(c4ncc(F)cc4F)CC34CC4)c3c(F)cc(F)cc32)n1` [Compound 200, 3-(7-(3,5-difluoropyridin-2-yl)-4,7-diazaspiro [2.5]octan-4-yl)-4,6-difluoro-1-((1-(isopropylsulfonyl)-1H−1,2,4-triazol-3-yl)sulfonyl)-1H-indazole], the EC50 with TFEB was not below 10 µM. In the case of `CC1CC(C)(C)N(C(=O)CN2C(=O)c3ccccc3C2=O)c2ccccc21` (centres unmarked) [ML-SA1], the “activation of whole-endolysosome IML1 compared with PI(3,5)P2” value with TRPML1 (ML-SA1 10 μM, PI(3,5)P2 1 μM) was “comparable to the effect of the endogenous TRPML agonist PI(3,5)P2 (1 μM)”. Also, the “activation of whole-cell IML1-4A and whole-endolysosome IML1” value in the test on TRPML1 was “robustly activated”. For the same compound, the “activation of whole-cell ITRPML2” value at TRPML2 is “activated”. Moreover, the “[Ca2+]cyt increases” value at ML1-4A was “significant [Ca2+]cyt increases”. Besides, the “activation of whole-endolysosome IML-L” value in test [1] is listed as “activated”; in test [2] it was “not”. The “concentration needed to effectively activate TRPMLs” value in the test on TRPMLs was approximately 10 µM. Besides, the “activation of whole-cell ITRPML3” value on TRPML3 was “activated”.
